The values below come from patent US8653258B2, “Compositions for regulating or modulating quorum sensing in bacteria, methods of using the compounds, and methods of regulating or modulating quorum sensing in bacteria” (Georgia State University Research Foundation, Inc., priority 2007, dated 2014).

“And” between values parts separate entries of the source, which are not always exact repeats. Equal entries are not always repeated. Where two headings read alike, the source gives them in different places.

The test system of assay [1] is AI-2-mediated gene expressions. Conditions: at about 323 μM; cited from earlier work.
For assay [2], the system named is AI-2-mediated quorum sensing. Kind of assay: microbe, parasite or virus in culture. The following applies: tested at least 3 times. It is filed as cell-based, Vibrio harveyi. As to the method: The candidate compounds identified as described in Example 1, above, were tested for their ability to inhibit AI-2 induced quorum sensing using the MM32 strain of V. harveyi. […] The V. harveyi bacteria can also emit luminescence upon AI-2 induced quorum sensing stimulation. Therefore, the ability of the “virtually” identified compounds to inhibit luminescence production in the presence of DPD and boric acid was examined.
MM32 bacteria were streak-seeded on fresh LM plates and cultured in the presence of kanamycin (50 μg/mL) and chloramphenicol (10 μg/mL). Colonies appeared after overnight incubation at 30° C. A single colony was picked up from the LM plate. This strain was grown for 16 hrs with aeration at 175 r.p.m and at 30° C. in 2 mL of Autoinducer Bioassay (AB) medium with antibiotics (kanamycin 50 μg/mL and chloramphenicol 10 μg/mL). The culture was then diluted to an OD600 0.7. This preinoculum was grown in AB-Fe medium with 1.2 mM of iron to OD600 1.0-1.1. The resulting inoculum culture was then diluted 5000-fold in fresh AB medium.
Solutions of the test compounds in AB medium were prepared in 96-well plates. To these solutions, freshly synthesized DPD (pH=7) solution was added for a final concentration of 5 μM. Boric acid was added to give a final concentration of 1 mM. After the addition of bacteria in AB medium, the micro plates were covered with a non-toxic plate sealer and incubated at 30° C. with aeration for 3-4 hrs.
In an initial round of screening, the concentration of the test compounds was fixed at 100 μg/mL (about 200-600 μM).

The next assay has as its system V. harveyi. Kind of assay: Bacterial growth curves (doubling time). It is filed as cell-based, Vibrio harveyi.
For the next assay, the system named is cysteines in protein. The following applies: read-out: EC50, covalent modification of cysteines in protein; cited from earlier work.
Setting [3] is: V. harveyi MM32, DPD 5 μM, boric acid 1 mM, read-out: IC50 value, inhibition of AI-2-mediated quorum sensing (V. harveyi luminescence).
The mark [4] stands for this setting: compound at 125 μM, control 79.4 min.
Setting [5] is: Vibrio harveyi, read-out: IC50 value, inhibition of AI-2-mediated quorum sensing (V. harveyi luminescence), V. harveyi MM32, DPD 5 μM, boric acid 1 mM.

Text for V. harveyi: To make sure that the observed luminescence intensity changes were not due to inhibition of bacterial growth, the effect of these boronic acids on bacterial growth was also studied.

Take `CCCCC1=C(Br)/C(=C/Br)OC1=O` [(5Z)-4-bromo-5-(bromomethylene)-3-butyl-2(5H)-furanone]: the “inhibition of AI-2-mediated gene expressions” value in assay [1] was “inhibit many AI-2-mediated gene expressions”.

A word on the IC50: it is the concentration that gives 50% inhibition. As for `OB(O)c1cncc2ccccc12` [Compound 4-IQBA], in assay [2] (setting [3]), the IC50 was 66 µM and 66.1 µM. Also, the doubling time with V. harveyi (setting [4]) worked out at 80.4 min.

On to `OB(O)c1cccc2cnccc12` [Compound 5-IQBA], for which, in assay [2] (setting [3]), the half-inhibitory concentration (IC50) is 30 µM and 30.4 µM. This compound also had a doubling time in the assay on V. harveyi (setting [4]) of 99.2 min.

Take `CC(C)OC(=S)CS(=O)(=O)c1ccccc1` [Compound 23]: in assay [2] (setting [5]), the half-inhibitory concentration (IC50) is 33 ± 4 µM.

For `Oc1cccc(O)c1O` [Compound 61, pyrogallol], in assay [2] (setting [5]), the IC50 amounted to 2 µM. In the assay on V. harveyi, the “effect on bacterial growth” value is recorded as “not due to growth inhibition”. In the assay on V. harveyi (compound at 5 μM, control 78.9 min), the doubling time was found to be 78.4 min.

With `c1ccc2c(c1)Nc1ccccc1S2` [Compound 62, phenothiazine], the IC50 in assay [2] (setting [5]) was 10 µM; in assay [2] (read-out: IC50 value, inhibition of AI-2-mediated quorum sensing (V. harveyi luminescence), V. harveyi MM32, DPD 5 μM, boric acid 1 mM) it was 10.7 ± 3.7 µM. Moreover, in the assay with V. harveyi, the “effect on bacterial growth” value is reported as “not due to growth inhibition”. In addition, the doubling time in the assay on V. harveyi (compound at 20 μM, control 78.9 min) was 72.3 min.

In the case of `Oc1ccccc1O` [Compound 63, catechol], the IC50 in assay [2] (setting [5]) turned out to be 59 ± 9 µM.

Consider `CCOC(=S)CS(=O)(=O)c1ccc(Br)cc1` [Compound H14], for which, in assay [2] (setting [5]), the IC50 was 13.8 ± 2 µM.

For `CCOC(=S)CS(=O)(=O)c1ccc(OC)cc1` [Compound H18], in assay [2] (setting [5]), the IC50 is 26 ± 3.5 µM.

For `CCOC(=O)CS(=O)(=O)c1ccc(-c2ccc3c(c2)OCCO3)cc1` [Compound H20], the IC50 in assay [2] (setting [5]) is 157 ± 43 µM.

`CCOC(=O)CS(=O)(=O)c1ccc(-c2ccc(C)cc2)cc1` [Compound H21]: in assay [2] (setting [5]), the IC50 was 8.2 ± 2.3 µM.

In the case of `CCOC(=O)CS(=O)(=O)c1ccc(-c2ccc(C(N)=O)cc2)cc1` [Compound H24], in assay [2] (setting [5]), the IC50 turned out to be 31.3 ± 23 µM.

`CCCS(=O)(=O)CC(=S)OCC` [Compound H26]: in assay [2] (setting [5]), the IC50 was 21.6 ± 2.9 µM.

`CCOC(=O)CS(=O)(=O)c1cccc(Br)c1` [Compound H28]: the IC50 in assay [2] (setting [5]) came to 162 ± 22 µM.

A word on the EC50: it is the midpoint of the concentration-response curve. Regarding `O=CC=Cc1ccccc1` [cinnamaldehyde], in the assay on cysteines in protein, the EC50 is 19 µM.
